Experimental data as given in patent US20120202801A1, “METHODS FOR TREATING BREAST CANCER” (priority 2009, published 2012).
Where two headings read alike, the source gives them in different places. Marks after values point to notes of the source that are not given here. Values belong to the compound of their own block, whether it stands above or below them.

Tests used:
[1] = In vitro plasma protein binding of 14C-Compound #10; assay type: in vitro ADME, mice, rats, dogs, monkeys, and humans; details: mouse, rat, dog, monkey, human, all species, read-out: plasma protein binding, overall mean
[2] = Single-dose oral toxicity study in rats; details: Sprague Dawley, rat, in vivo
Procedure: The L23 vehicle was used.
Because maximal exposure occurred at 100 mg/kg, this dose is considered the NOAEL for 1 day of dosing.

[3] = test system: soluble VEGF121 and VEGF165 isoforms; test: ELISA of soluble VEGF production in multiple human tumor cell lines (EC50); assay type: cell-based
Procedure: Study Design. […] In these experiments, cultures were established under normoxic conditions (21% oxygen). […] Cells requiring induction of VEGF production were incubated under hypoxic conditions (1% oxygen). At the completion of treatment, the conditioned media were collected and assayed by ELISA (as described in Section 9.1.1.1) for soluble VEGF121 and VEGF165 isoforms; results were calculated as percentage inhibition relative to vehicle treated controls. EC50 values were calculated from the dose concentration response curves.

[4] = rat, in vivo
[5] = Dose response assessment in nude mice bearing HT1080 xenografts (tumor and plasma human VEGF, tumor size, trough plasma concentration); assay type: in vivo; details: male, athymic nude, mouse, plasma, oral; 1 mg/kg BID, 16 hours after the first day of dosing (n=3)
Procedure: Experimental Study Design. HT1080 cells (5×10^6 cells/mouse) were implanted subcutaneously in male athymic nude mice.
Tumor size was measured using calipers at periodic intervals during the study (data shown in Section 9.2.2). […] Mice were sacrificed, and excised tumors were homogenized in buffer containing protease inhibitors. Both terminal intratumoral and pathologic plasma human VEGF levels were measured using an ELISA that recognizes human VEGF121 and VEGF165 (as described in Section 9.1.1.1). Intratumoral VEGF levels were normalized to the total tumor protein concentration, while pathologic plasma human VEGF levels were expressed in pg/mL of plasma.
Experimental Design. The experimental design was reported in Section 9.1.2.2.

HT1080 xenografts [6] = test: HT1080 xenograft tumor growth, Compound 1205, 1330 and Compound #10 (studies 21-24b); assay type: in vivo, mice
From the text: Experimental Design. HT1080 cells (5×10^6 cells/mouse) were implanted subcutaneously in male athymic nude mice. […] For comparison, Compound #10 was included in this study.

[7] = test system: human VEGF121 and VEGF165; test: Intra-tumor and pathologic plasma human VEGF in HT1080 xenografts, Compound 1205 (studies #21, #23); assay type: in vivo, mice
From the text: Experimental Design. HT1080 cells (5×10^6 cells/mice) were implanted subcutaneously into male athymic nude mice. Treatment with vehicle alone or Compound 1205 was initiated when the median tumor volume was approximately 311±88 mm^3. Table 7 and Table 9 (study design #21 and #23) provide the study design for assessing tumor and plasma pathologic VEGF concentrations—each group in each study included eight (8) mice. When the tumors in vehicle-treated mice had reached the target size of ˜1200 mm^3 for study #21 and ˜1500 mm^3 for study #23, all mice in the study were sacrificed, and excised tumors were homogenized in buffer containing protease inhibitors. Both intra-tumor and pathologic plasma human VEGF levels were measured using an ELISA that recognizes human VEGF121 and VEGF165. Intra-tumor VEGF levels were normalized to the total tumor protein concentration and pathologic plasma VEGF levels were expressed in pg/mL. Because smaller tumors produce less VEGF per mg of tumor protein, intra-tumor VEGF levels were normalized to tumor size.

HT1080 xenografts [8] = test: Time course of tumor size and plasma human VEGF in HT1080 xenografts; assay type: in vivo, mice; details: by Day 1
Procedure: (§1) Experimental Design. HT1080 cells (5×10^6 cells/mouse) were implanted subcutaneously in male athymic nude mice.
Tumor size was measured by calipers immediately pre-treatment and at the time of sacrifice on Day 1, 2, or 3 (5 mice per group per day). At sacrifice, the plasma was collected for assay of pathologic human VEGF concentration using an ELISA that recognizes human VEGF121 and VEGF165 (as described in Section 9.1.1.1).

HT1080 xenografts [9] = test: BrdU labeling of tumor cells from HT1080 xenografts in vivo; design: species or system mice; details: 1, 2, or 3 days of treatment
Procedure: as §1
The mice were sacrificed 3 hours later, and the tumors collected. A single cell suspension was prepared from the tumor cells. The cells were permeabilized and an antibody to BrdU was used to stain cells that had entered S phase during the labeling period. The proportion of cells actively synthesizing DNA was determined by cell sorting.

fraction unbound [1]: ≤ 0.005 | EC50 ([3]; A-375, Melanoma, A375, hypoxic (1% oxygen), 48 hours, read-out: VEGF Inhibition Approximate EC50): ~0.05 µM | EC50 ([3]; A-431, Epidermoid, A431, 48 hours, read-out: VEGF Inhibition Approximate EC50): ~0.01 µM | EC50 ([3]; ASPC1, ASPC-1 (Pancreas), 48 hours, read-out: VEGF Inhibition EC50): > 30 µM | EC50 ([3]; Breast, MDA-MB-468, hypoxic (1% oxygen), 48 hours, read-out: VEGF Inhibition Approximate EC50): ~0.005 µM | EC50 ([3]; Cervical, HeLa, hypoxic (1% oxygen), 48 hours, read-out: VEGF Inhibition Approximate EC50): ~0.002 µM | EC50 ([3]; Colorectal, HCT-116, 48 hours, read-out: VEGF Inhibition Approximate EC50): ~0.01 µM | EC50 ([3]; Gastric, AGS, 48 hours, read-out: VEGF Inhibition Approximate EC50): ~0.0001 µM | EC50 ([3]; Gastric, Kato III, hypoxic (1% oxygen), 48 hours, read-out: VEGF Inhibition Approximate EC50): ~0.01 µM | EC50 ([3]; HCT-116, HCT116 (Colorectal), 48 hours, read-out: VEGF Inhibition EC50): 0.01 µM | EC50 ([3]; HEK293 (Renal cell), 48 hours, read-out: VEGF Inhibition EC50): 0.01 µM | EC50 ([3]; HPAF-2 (Pancreas), 48 hours, read-out: VEGF Inhibition EC50): > 30 µM | EC50 ([3]; HT-1080, Fibrosarcoma, HT1080, 48 hours, read-out: VEGF Inhibition Approximate EC50): ~0.01 µM | EC50 ([3]; HT-1080, HT1080 (Fibrosarcoma), 48 hours, read-out: VEGF Inhibition EC50): 0.01 µM | EC50 ([3]; HeLa (Cervical), 48 hours, read-out: VEGF Inhibition EC50): 0.002 µM | EC50 ([3]; Lung, A549, 48 hours, read-out: VEGF Inhibition Approximate EC50): ~0.05 µM | EC50 ([3]; Lung, Calu-6, hypoxic (1% oxygen), 48 hours, read-out: VEGF Inhibition Approximate EC50): ~0.007 µM | EC50 ([3]; MDA-MB-231, 48 h, read-out: VEGF Inhibition Approximate EC50): ~0.005 µM | EC50 ([3]; Neuroblastoma, SY5Y, hypoxic (1% oxygen), 48 hours, read-out: VEGF Inhibition Approximate EC50): ~0.005 µM | EC50 ([3]; PL45, PL-45 (Pancreas), 48 hours, read-out: VEGF Inhibition EC50): > 30 µM | EC50 ([3]; Pancreas, Capan-1, hypoxic (1% oxygen), 48 hours, read-out: VEGF Inhibition Approximate EC50): ~0.005 µM | EC50 ([3]; Prostate, LNCaP, hypoxic (1% oxygen), 48 hours, read-out: VEGF Inhibition Approximate EC50): ~0.015 µM | EC50 ([3]; Renal cell, HEK293, 48 hours, read-out: VEGF Inhibition Approximate EC50): ~0.01 µM | EC50 ([3]; SK-OV-3, Ovarian, SKOV3, hypoxic (1% oxygen), 48 hours, read-out: VEGF Inhibition Approximate EC50): ~0.01 µM | EC50 ([3]; SNU1, Gastric, SNU-1, 48 hours, read-out: VEGF Inhibition Approximate EC50): ~0.0001 µM | EC50 ([3]; U-87MG (Glioblastoma), 48 hours, read-out: VEGF Inhibition EC50): > 30 µM | dose of maximal exposures ([4]; both, Sprague Dawley, 7 days): 120 mg/kg/day | elevation in mean cholesterol levels [4]: 2.5-3 fold | elevation in mean glucose levels [4]: about 1.3 fold | concentration at 16 h [5]: 0.28 µM
SMILES: COc1ccc([C@H]2c3[nH]c4ccc(Cl)cc4c3CCN2C(=O)Oc2ccc(Cl)cc2)cc1 (racemic) [Compound #10]
dose of maximal exposure [2]: 100 mg/kg | EC50 ([3]; Lung, NCI H460, 48 hours, read-out: VEGF Inhibition Approximate EC50): ~0.01 µM | EC50 ([3]; NCI H460 (Lung), 48 hours, read-out: VEGF Inhibition EC50): 0.01 µM

SMILES: O=C(Oc1ccc(Cl)cc1)N1CCc2c([nH]c3ccc(Cl)cc23)[C@@H]1c1ccc(OCC[C@H](O)CO)cc1 [Compound 1205]
Final mean terminal tumor size in treatment group (HT1080 xenografts [6]; Study 21: 3 mg/kg QD): 379 mm^3 | Final mean terminal tumor size in treatment group (HT1080 xenografts [6]; Study 22: 0.5 mg/kg QD): 1750 mm^3 | Difference vs. vehicle in median number of days to reach 1000 mm^3 (HT1080 xenografts [6]; Study 22: 3 mg/kg QD): 14** Days | Final mean terminal tumor size in treatment group (HT1080 xenografts [6]; Study 22: 3 mg/kg QD): 1840 mm^3 | Difference vs. vehicle in median number of days to reach 1000 mm^3 (HT1080 xenografts [6]; Study 24a: 10 mg/kg QD): 14** Days | Mean difference in tumor growth rate at the Day that the vehicle-treated tumors taken off study (%) (HT1080 xenografts [6]; Study 24a: 10 mg/kg QD, Day 11): 76%** | Difference vs. vehicle in median number of days to reach 1000 mm^3 (HT1080 xenografts [6]; Study 24b: 0.3 mg/kg QD): 0.7 days | Final mean terminal tumor size in treatment group (HT1080 xenografts [6]; Study 24b: 0.3 mg/kg QD): 1540 mm^3 | inhibition of both tumor and pathologic plasma human VEGF levels ([7]; 0.5 or 3 mg/kg QD): more than 95% | Mean difference in human tumor VEGF (%) at Day 14 ([7]; Study #21, 3 mg/kg QD, 14 days): 98%**

SMILES: COc1cccc2c1C(=O)c1c(O)c3c(c(O)c1C2=O)C[C@@](O)(C(=O)CO)C[C@@H]3O[C@H]1C[C@H](N)[C@H](O)[C@H](C)O1 [doxorubicin]
pathologic plasma human VEGF levels vs control (HT1080 xenografts [8]): numerically lower than in control animals | BrdU staining of tumor cells (proportion of cells in S phase) (HT1080 xenografts [9]): decreased the percentage of tumor cells staining with BrdU
